Two compounds from US20040147554A1, “Crystalline form of (3R,4R)-4-[3-(S)-hydroxy-3-(6-methoxy-quinolin-4-yl)propyl]-1-[2-2thienylthio)ethyl] piperidine-3-carboxylic acid” (Aventis Pharms S.A., priority 2002, published 2004) can be followed below.

Holding throughout (format): physicochemical
The nature of series [1]: Stability of the crystalline form versus humidity (powder X-ray diffraction). On the procedure: The analyses are carried out on a Bruker D8 diffractometer having a copper-anticathode tube equipped with a front monochromator (wavelength of the copper Kα1 line: 1.54060 Å). The arrangement is of Bragg-Brentano type, with a point scintillation detector. The angular range swept extends from 2 to 40 degrees 2θ with a step of 0.02 degrees 2θ. The counting time is 120 seconds per step.
Form C of (3R,4R)-4-[3-(S)-hydroxy-3-(6-methoxyquinolin-4-yl)propyl]-1-[2-(2-thienylthio)ethyl]piperidine-3-carboxylic acid is a monohydrate form. It is stable at 25° C. and at the degree of ambient humidity. It is particularly stable between 50% and 100% humidity.

A short description of series [2]: Loss in mass on heating below 50% humidity (dehydration). The conditions noted are these: between 25° C. and 75° C., 1 mole of water/mole of the acid, dehydration to form B. As to the method: Below 50% humidity, a loss in mass of 3.7% by weight is recorded between 25° C. and 75° C. (1 mole of water/mole of the acid). This loss in mass corresponds to the dehydration of the form C to give another form of (3R,4R)-4-[3-(S)-hydroxy-3-(6-methoxyquinolin-4-yl)propyl]-1-[2-(2-thienylthio)ethyl]piperidine-3-carboxylic acid, hereinafter known as form B.

The nature of series [3]: Stability of the crystalline form in alcohol/water mixtures. The conditions noted are these: methanol/water or ethanol/water (1/1 by volume), after 30 days. As to the method:
by stirring a suspension of form A at a temperature of 20° C.-25° C., in tetrahydrofuran/demineralized water (50/50 by volume), methyl ethyl ketone/demineralized water (80/20 by volume to 20/80 by volume), acetonitrile/demineralized water (50/50 by volume to 20/80 by volume) or ethanol or methanol/demineralized water (50/50 by volume) mixtures, for 5 days to about 30 days.

Regarding `COc1ccc2nccc([C@@H](O)CC[C@@H]3CCN(CCSc4cccs4)C[C@@H]3C(=O)O)c2c1` [Form B, (3R,4R)-4-[3-(S)-hydroxy-3-(6-methoxyquinolin-4-yl)propyl]-1-[2-(2-thienylthio)ethyl]piperidine-3-carboxylic acid], the “humidity up to which the form is stable” value in series [1] (humidity) is “up to 30%”.

With `COc1ccc2nccc([C@@H](O)CC[C@@H]3CCN(CCSc4cccs4)C[C@@H]3C(=O)O)c2c1` [Form C, (3R,4R)-4-[3-(S)-hydroxy-3-(6-methoxyquinolin-4-yl)propyl]-1-[2-(2-thienylthio)ethyl]piperidine-3-carboxylic acid], the “stability of the crystalline form” value in series [1] (25° C., ambient humidity) was “stable”. Besides, the “stability by powder X-ray diffraction” value in series [1] (97% humidity, 20° C., after 11 weeks) was “stability in the monohydtrate form”. The loss in mass in series [2] stood at 3.7 % by weight. Also, the “stability of the crystalline form in solvent mixture” value in series [3] is recorded as “stable”.
